Measured values: patent publication US11370779B2, “Pharmaceutical composition for preventing or treating acute myeloid leukemia or metastatic breast cancer” (PELEMED CO., LTD., priority 2017, dated 2022)
Counter-ions that a name gives are not always drawn.

Tests used:
FLT3 kinase = FLT3 kinase (Homo sapiens (Human), UniProt P36888); assay: In vitro FLT3 kinase HTRF assay (Example 2); assay type: biochemical; settings: Table 1; HTRF, recombinant FLT3 kinase domain, 500 μM ATP
Description: Inhibition of the FLT3 kinase activity was measured using homogeneous, time-resolved fluorescence (HTRF) assays. Recombinant proteins containing the FLT3 kinase domain were purchased from Carna biosciences (Japan). Optimal enzyme, ATP, and substrate concentrations were established using the HTRF KinEASE kit (Cisbio, France) according to the manufacturer's instructions. The FLT3 enzymes were mixed in sequence with diluted compounds and peptide substrates in a kinase reaction buffer (50 mM HEPES (pH 7.0), 500 μM ATP, 0.1 mM sodium orthovanadate, 5 mM MgCl2, 1 mM DTT, 0.01% bovine serum albumin (BSA), and 0.02% NaN3). After the addition of the reagents for detection, the TR-FRET signal was measured using a Victor multilabel reader (Perkin Elmer, Waltham, Mass., USA). […] JAK2, JAK3, cMET, and RET in vitro kinase assays were also performed using the HTRF assay.

MV4;11 cells = assay: Cell viability, EZ-Cytox tetrazolium assay, MV4;11; assay type: cell-based, human; settings: Homo sapiens, MV4-11, 72 hours; for IC50: Table 1; for GI50: read-out: GI50(nM) MV4;11
Description: The cultured cells were incubated at 3° C. with 5% CO2.
(§1) Cell viability was assessed by a tetrazolium-based assay using the EZ-Cytox Cell Viability Assay kit (DaeilLab, Korea). Briefly, 2,000 to 15,000 cells were plated in 96-well plates in 100 μl of medium. The next day, the cells were treated with compounds together with dimethyl sulfoxide (DMSO) as a negative control. Three days (72 hours) after the drug addition, 15 μl of the EZ-Cytox kit reagent was added to each well of the 96-well plate and then incubated at 37° C. in a humidified CO2 incubator for 4 hours. After incubation, the optical density (OD) was measured at a wavelength of 450 nm using a Victor multilabel reader (Perkin Elmer, Waltham, Mass., USA).

MDA-MB-231 = assay: Cell viability, EZ-Cytox tetrazolium assay, MDA-MB-231; assay type: cell-based, human; settings: Homo sapiens, MDA-MB-231; 72 hours
Description: MDA-MB-231 (metastatic breast cancer, ATCC HTB-26), Jurkat (human acute T lymphocytic leukemia, ATCC TIB-152), and K-562 (human chronic myelogenous leukemia, ATCC CCL-243) cells were cultured in RPMI-1640 (Sigma Co.). MCF7 (human breast adenocarcinoma, ATCC HTB-22) and PC-3 (human prostate adenocarcinoma, ATCC CRL-1435) cells were cultured in DMEM (Sigma Co.) medium supplemented with 10% fetal bovine serum and 1% penicillin/streptomycin. The cultured cells were incubated at 3° C. with 5% CO2.
as §1, with “USA). The IC50 was calculated by nonlinear regression using Prism version 5.01 (GraphPad, La Jolla, Calif., USA).” for “USA).”

FLT3 kinase, sequence (P36888 610-943): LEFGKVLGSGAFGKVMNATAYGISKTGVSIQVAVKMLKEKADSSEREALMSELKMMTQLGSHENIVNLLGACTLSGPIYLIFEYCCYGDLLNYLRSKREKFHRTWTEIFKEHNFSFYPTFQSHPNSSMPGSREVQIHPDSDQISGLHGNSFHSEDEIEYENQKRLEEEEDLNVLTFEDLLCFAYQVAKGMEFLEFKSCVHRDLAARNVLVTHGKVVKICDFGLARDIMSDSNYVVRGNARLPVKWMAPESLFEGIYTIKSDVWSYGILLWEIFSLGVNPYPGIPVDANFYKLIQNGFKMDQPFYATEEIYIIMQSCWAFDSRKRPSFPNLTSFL

`COC(=O)c1ccc2c(c1)/C(=C1/Nc3ccccc3/C1=N\OCCBr)C(=O)N2` [Compound 2, Methyl (2Z,3E)-3-((2-bromoethoxy)imino)-2′-oxo-[2,3′-biindolinylidene]-5′-carboxylate] showed an IC50 (FLT3 kinase) of 19 nM and an IC50 (MV4;11 cells) of 51 nM.

`COC(=O)c1ccc2c(c1)/C(=C1/Nc3ccccc3/C1=N\OCCN)C(=O)N2` [Compound 3, Methyl (2Z,3E)-3-((2-aminoethoxy)imino)-2′-oxo-[2,3′-biindolinylidene]-5′-carboxylate hydrochloride] gave an IC50 (FLT3 kinase) of 5 nM and an IC50 (MV4;11 cells) of 15 nM.

`COC(=O)c1ccc2c(c1)/C(=C1/Nc3ccccc3/C1=N\OCCN1CCN(C)CC1)C(=O)N2` [Compound 5, Methyl (2Z,3E)-3-((2-(4-methylpiperazin-1-yl)ethoxy)imino)-2′-oxo-[2,3′-biindolinylidene]-5′-carboxylate dihydrochloride] was tested, and the IC50 (MV4;11 cells) was 11 nM.

With `COC(=O)c1ccc2c(c1)/C(=C1/Nc3ccccc3/C1=N\OCCN1CCOCC1)C(=O)N2` [Compound 6, Methyl (2Z,3E)-3-((2-morpholinoethoxy)imino)-2′-oxo-[2,3′-biindolinylidene]-5′-carboxylate hydrochloride] the IC50 (MV4;11 cells) was 53 nM.

Work on `CN1CCN(CCO/N=C2/C(=C3/C(=O)Nc4ccc([N+](=O)[O-])cc43)Nc3ccc(O)cc32)CC1` [Compound 14, (2Z,3E)-5-hydroxy-3-((2-(4-methylpiperazin-1-yl)ethoxy)imino)-5′-nitro-[2,3′-biindolinylidene]-2′-one dihydrochloride] yielded a GI50 (MV4;11 cells) of 50 nM and a GI50 (MDA-MB-231) of 29.1 nM.

Molecule `NCCO/N=C1/C(=C2/C(=O)Nc3ccc([N+](=O)[O-])cc32)Nc2ccccc21` [Compound 15, (2Z,3E)-3-((2-aminoethoxy)imino)-5′-nitro-[2,3′-biindolinylidene]-2′-one hydrochloride] has a GI50 (MDA-MB-231) of over 1 nM.

Work on `O=C1Nc2ccc([N+](=O)[O-])cc2/C1=C1/Nc2ccccc2/C1=N\OCCN1CCNCC1` [Compound 16, (2Z,3E)-5′-nitro-3-((2-(piperazin-1-yl)ethoxy)imino)-[2,3′-biindolinylidene]-2′-one dihydrochloride] yielded a GI50 (MV4;11 cells) of 7.01 nM and a GI50 (MDA-MB-231) of 74.3 nM.

For `O=C1Nc2ccc([N+](=O)[O-])cc2/C1=C1/Nc2ccc(F)cc2/C1=N\OCCN1CCNCC1` [Compound 17, (2Z,3E)-5-fluoro-5′-nitro-3-((2-(piperazin-1-yl)ethoxy)imino)-[2,3′-biindolinylidene]-2′-one dihydrochloride], the GI50 (MV4;11 cells) was 10.2 nM and the GI50 (MDA-MB-231) was 88.8 nM.

For `CN1CCN(CCO/N=C2/C(=C3/C(=O)Nc4ccc([N+](=O)[O-])cc43)Nc3ccc(F)cc32)CC1` [Compound 18, (2Z,3E)-5-fluoro-3-((2-(4-methylpiperazin-1-yl)ethoxy)imino)-5′-nitro-[2,3′-biindolinylidene]-2′-one dihydrochloride], the GI50 (MV4;11 cells) was 118 nM and the GI50 (MDA-MB-231) was 69.7 nM.

`O=C1Nc2ccc([N+](=O)[O-])cc2/C1=C1/Nc2ccc(F)cc2/C1=N\OCCN1CCCCC1` [Compound 19, (2Z,3E)-5-fluoro-5′-nitro-3-((2-(piperidin-1-yl)ethoxy)imino)-[2,3′-biindolinylidene]-2′-one hydrochloride] gave a GI50 (MV4;11 cells) of 1.49 nM and a GI50 (MDA-MB-231) of 804 nM.

Work on `O=C1Nc2ccc([N+](=O)[O-])cc2/C1=C1/Nc2ccc(F)cc2/C1=N\OCCN1CCCC1` [Compound 20, (2Z,3E)-5-fluoro-5′-nitro-3-((2-(pyrrolidin-1-yl)ethoxy)imino)-[2,3′-biindolinylidene]-2′-one hydrochloride] yielded a GI50 (MV4;11 cells) of 447 nM and a GI50 (MDA-MB-231) of 144 nM.

In the case of `CN1CCN(CCO/N=C2/C(=C3/C(=O)Nc4ccc(F)cc43)Nc3ccc(F)cc32)CC1` [Compound 22, (2Z,3E)-5,5′-difluoro-3-((2-(4-methylpiperazin-1-yl)ethoxy)imino)-[2,3′-biindolinylidene]-2′-one dihydrochloride], the GI50 (MDA-MB-231) is reported as 600 nM.

Molecule `O=C1Nc2ccc(F)cc2/C1=C1/Nc2ccc(F)cc2/C1=N\OCCN1CCCCC1` [Compound 23, (2Z,3E)-5,5′-difluoro-3-((2-(piperidin-1-yl)ethoxy)imino)-[2,3′-biindolinylidene]-2′-one hydrochloride] has a GI50 (MV4;11 cells) of 3.19 nM and a GI50 (MDA-MB-231) of over 1 nM.

In the case of `O=C1Nc2ccc(F)cc2/C1=C1/Nc2ccc(F)cc2/C1=N\OCCN1CCCC1` [Compound 24, (2Z,3E)-5,5′-difluoro-3-((2-(pyrrolidin-1-yl)ethoxy)imino)-[2,3′-biindolinylidene]-2′-one hydrochloride], the GI50 (MV4;11 cells) is reported as 634 nM and the GI50 (MDA-MB-231) is reported as 347 nM.

`NC1CCN(CCO/N=C2/C(=C3/C(=O)Nc4ccc(F)cc43)Nc3ccc(F)cc32)CC1` [Compound 25, (2Z,3E)-3-((2-(4-aminopiperidin-1-yl)ethoxy)imino)-5,5′-difluoro-[2,3′-biindolinylidene]-2′-one dihydrochloride] gave a GI50 (MV4;11 cells) of 85.7 nM and a GI50 (MDA-MB-231) of over 1 nM.

For `CN1CCN(CCO/N=C2/C(=C3/C(=O)Nc4ccccc43)Nc3ccccc32)CC1` [Compound 29, (2Z,3E)-3-((2-(4-methylpiperazin-1-yl)ethoxy)imino)-[2,3′-biindolinylidene]-2′-one dihydrochloride], the GI50 (MV4;11 cells) was 54.8 nM and the GI50 (MDA-MB-231) was 483 nM.

In the case of `O=C1Nc2ccccc2/C1=C1/Nc2ccccc2/C1=N\OCCN1CCCCC1` [Compound 30, (2Z,3E)-3-((2-(piperidin-1-yl)ethoxy)imino)-[2,3′-biindolinylidene]-2′-one hydrochloride], the GI50 (MV4;11 cells) is reported as 138 nM and the GI50 (MDA-MB-231) is reported as over 1 nM.

Work on `O=C1Nc2ccccc2/C1=C1/Nc2ccccc2/C1=N\OCCN1CCCC1` [Compound 31, (2Z,3E)-3-((2-(pyrrolidin-1-yl)ethoxy)imino)-[2,3′-biindolinylidene]-2′-one hydrochloride] yielded a GI50 (MV4;11 cells) of 104 nM and a GI50 (MDA-MB-231) of 313 nM.

In the case of `O=C1Nc2ccc(F)cc2/C1=C1/Nc2ccccc2/C1=N\OCCN1CCCCC1` [Compound 35, (2Z,3E)-5′-fluoro-3-((2-(piperidin-1-yl)ethoxy)imino)-[2,3′-biindolinylidene]-2′-one hydrochloride], the GI50 (MV4;11 cells) is reported as 263 nM and the GI50 (MDA-MB-231) is reported as 805 nM.

In the case of `O=C1Nc2ccc(Cl)cc2/C1=C1/Nc2ccccc2/C1=N\OCCN1CCNCC1` [Compound 38, (2Z,3E)-5′-chloro-3-((2-(piperazin-1-yl)ethoxy)imino)-[2,3′-biindolinylidene]-2′-one dihydrochloride], the GI50 (MV4;11 cells) is reported as 11 nM.

In the case of `CN1CCN(CCO/N=C2/C(=C3/C(=O)Nc4ccc(Cl)cc43)Nc3ccccc32)CC1` [Compound 39, (2Z,3E)-5′-chloro-3-((2-(4-methylpiperazin-1-yl)ethoxy)imino)-[2,3′-biindolinylidene]-2′-one dihydrochloride], the GI50 (MV4;11 cells) is reported as 37 nM.

Molecule `O=C1Nc2ccc(Br)cc2/C1=C1/Nc2ccccc2/C1=N\OCCN1CCNCC1` [Compound 40, (2Z,3E)-5′-bromo-3-((2-(piperazin-1-yl)ethoxy)imino)-[2,3′-biindolinylidene]-2′-one dihydrochloride] has a GI50 (MV4;11 cells) of 10 nM.

`O=C1Nc2ccc(I)cc2/C1=C1/Nc2ccccc2/C1=N\OCCN1CCNCC1` [Compound 42, (2Z,3E)-5′-iodo-3-((2-(piperazin-1-yl)ethoxy)imino)-[2,3′-biindolinylidene]-2′-one dihydrochloride] was tested, and the GI50 (MV4;11 cells) was 9 nM.

With `CN1CCN(CCO/N=C2/C(=C3/C(=O)Nc4ccc(I)cc43)Nc3ccccc32)CC1` [Compound 43, (2Z,3E)-5′-iodo-3-((2-(4-methylpiperazin-1-yl)ethoxy)imino)-[2,3′-biindolinylidene]-2′-one dihydrochloride] the GI50 (MV4;11 cells) was 32 nM.

In the case of `COc1ccc2c(c1)/C(=C1/Nc3ccccc3/C1=N\OCCN1CCNCC1)C(=O)N2` [Compound 46, (2Z,3E)-5′-methoxy-3-((2-(piperazin-1-yl)ethoxy)imino)-[2,3′-biindolinylidene]-2′-one dihydrochloride], the GI50 (MV4;11 cells) is reported as 17 nM.

`COc1ccc2c(c1)/C(=C1/Nc3ccccc3/C1=N\OCCN1CCN(C)CC1)C(=O)N2` [Compound 47, (2Z,3E)-5′-methoxy-3-((2-(4-methylpiperazin-1-yl)ethoxy)imino)-[2,3′-biindolinylidene]-2′-one dihydrochloride] gave a GI50 (MV4;11 cells) of 7 nM.
